Data published in ChEMBL document CHEMBL1154407, “Tick acquisition of Ehrlichia canis from dogs treated with doxycycline hyclate” (Antimicrob Agents Chemother, 2007).
Active and inactive are the calls of the source.

Columns and labels:
Assay type in all cases: functional, organism-based
Set-up in all cases: dose 10 mg/kg
Ehrlichia canis [1] = assay: Antimicrobial activity against Ehrlichia canis infected in Beagle dog AHK at 10 mg/kg, po once daily for 14 days measured 55 days post-tick attachment after drug administration by PCR
Ehrlichia canis [2] = assay: Antimicrobial activity against Ehrlichia canis infected in Beagle dog AHG at 10 mg/kg, po once daily for 14 days measured 76 days post-tick attachment after drug administration by PCR
Ehrlichia canis [3] = assay: Antimicrobial activity against Ehrlichia canis infected in Beagle dog AIP at 10 mg/kg, po once daily for 14 days measured 83 days post-tick attachment after drug administration by PCR
Ehrlichia canis [4] = assay: Antimicrobial activity against Ehrlichia canis infected in Beagle dog AUF at 10 mg/kg, po once daily for 14 days measured 104 days post-tick attachment after drug administration by PCR
Ehrlichia canis [5] = assay: Antimicrobial activity against Ehrlichia canis infected in Beagle dog AIP with brown dog tick assessed as infected ticks at 10 mg/kg, po once daily for 14 days measured 7 days post-tick attachment after drug administration by PCR

Measured: Activity

C[C@H]1c2cccc(O)c2C(=O)C2=C(O)[C@]3(O)C(=O)C(C(N)=O)=C(O)[C@@H](N(C)C)[C@@H]3[C@@H](O)[C@@H]21
inactive: all assays above
